# ChEMBL document CHEMBL5257135, “Synthesis of Artesunic Acid-Coumarin Hybrids as Potential Antimelanoma Agents” (ACS Med Chem Lett, 2023)
# Activity calls are given as the source filed them. No cut-off for these calls is given here.
# Experiments:
# [1] = Cytotoxicity against human C3PV cells assessed as reduction in cell viability incubated for 24 hrs by MTT assay; assay type: toxicity, cell-based; settings: for IC50 at 24 h: human, C3PV cells; for IC50: c3pv
# SK-MEL-28 [2] = assay: Anticancer activity against human SK-MEL-28 cells assessed as reduction in cell viability incubated for 24 hrs by MTT assay; assay type: functional, cell-based; settings: SK-MEL-28, 24 h
# [3] = Selectivity index, ratio of IC50 for cytotoxicity against human C3PV cells to IC50 for anticancer activity against human SK-MEL3 cells; assay type: toxicity, cell-based; settings: C3PV cells and SK-MEL3 cells, read-out: Ratio IC50
# SK-MEL3 [4] = assay: Anticancer activity against human SK-MEL3 cells assessed as reduction in cell viability incubated for 24 hrs by MTT assay; assay type: functional, cell-based; settings: SK-MEL3, 24 h
# [5] = Drug localization in human SK-MEL3 cell nucleus incubated for 24 hrs by propidium iodide staining based Confocal microscopy; assay type: ADME, subcellular; settings: sk-mel3, 24 h
# SK-MEL3 [6] = assay: Induction of apoptosis in human SK-MEL3 cells assessed as dead cells at 0.05 uM by fluorescein diacetate, propidium iodide, and Hoechst staining based confocal microscopy; assay type: functional, cell-based
# SK-MEL3 [7] = assay: Antiproliferative activity against human SK-MEL3 cells assessed as reduction in cell proliferation at 0.05 uM to incubated for 24 hrs by trypan blue exclusion assay; assay type: functional, cell-based
# SK-MEL3 [8] = assay: Anticancer activity against human SK-MEL3 cells assessed as reduction in cell viability incubated for 24 hrs in presence of deferoxamine by MTT assay; assay type: functional, cell-based; settings: SK-MEL3, 24 h
# [9] = Cytotoxicity against human C3PV cells assessed as reduction in cell proliferation at 0.05 uM to incubated for 24 hrs by trypan blue exclusion assay; assay type: toxicity, cell-based
# C3PV [10] = assay: Induction of apoptosis in human C3PV cells assessed as dead cells at 0.05 uM by fluorescein diacetate, propidium iodide, and Hoechst staining based confocal microscopy; assay type: functional, cell-based
# SK-MEL-28 [11] = assay: Antiproliferative activity against human SK-MEL-28 cells assessed as reduction in cell proliferation at 0.05 uM to incubated for 24 hrs by trypan blue exclusion assay; assay type: functional, cell-based
# SK-MEL-28 [12] = assay: Induction of apoptosis in human SK-MEL-28 cells assessed as dead cells at 0.05 uM by fluorescein diacetate, propidium iodide, and Hoechst staining based confocal microscopy; assay type: functional, cell-based
# [13] = Cytotoxicity against human C3PV cells assessed as reduction in cell proliferation at 0.015 uM to incubated for 24 hrs by trypan blue exclusion assay; assay type: toxicity, cell-based
# C3PV [14] = assay: Induction of apoptosis in human C3PV cells assessed as dead cells at 0.015 uM by fluorescein diacetate, propidium iodide, and Hoechst staining based confocal microscopy; assay type: functional, cell-based
# SK-MEL3 [15] = assay: Induction of apoptosis in human SK-MEL3 cells assessed as dead cells at 0.015 uM by fluorescein diacetate, propidium iodide, and Hoechst staining based confocal microscopy; assay type: functional, cell-based
# SK-MEL-28 [16] = assay: Induction of apoptosis in human SK-MEL-28 cells assessed as dead cells at 0.015 uM by fluorescein diacetate, propidium iodide, and Hoechst staining based confocal microscopy; assay type: functional, cell-based
# SK-MEL-28 [17] = assay: Antiproliferative activity against human SK-MEL-28 cells assessed as reduction in cell proliferation at 0.015 uM to incubated for 24 hrs by trypan blue exclusion assay; assay type: functional, cell-based
# SK-MEL3 [18] = assay: Antiproliferative activity against human SK-MEL3 cells assessed as reduction in cell proliferation at 0.015 uM to incubated for 24 hrs by trypan blue exclusion assay; assay type: functional, cell-based
# SK-MEL3 [19] = assay: Anticancer activity against human SK-MEL3 cells assessed as reduction in cell viability incubated for 24 hrs in presence of Artesunic acid by MTT assay; assay type: functional, cell-based; settings: SK-MEL3, 24 h
SMILES,IC50 at 24 h [1] [µM],IC50 (SK-MEL-28 [2]) [µM],selectivity ratio [3],IC50 (SK-MEL3 [4]) [nM],also measured
COc1cc2ccc(=O)oc2cc1O [SCOPOLETIN],1.6,3.43,1.1,1500,–
C[C@H]1[C@H](OC(=O)CCC(=O)Oc2cc3ccccc3oc2=O)O[C@@H]2C[C@]3(C)CC[C@H]4[C@H](C)CC[C@@H]1[C@@]24OO3,5.64,38,5.64,1000,–
CC(=O)O[C@H]1C(=O)[C@@]2(C)[C@H]([C@H](OC(=O)c3ccccc3)[C@]3(O)C[C@H](OC(=O)[C@H](O)[C@@H](NC(=O)c4ccccc4)c4ccccc4)C(C)=C1C3(C)C)[C@]1(OC(C)=O)CO[C@@H]1C[C@@H]2O [PACLITAXEL],78.9,1.07,16.7,4730,–
Cc1cc(=O)oc2cc(OC(=O)CCC(=O)O[C@@H]3O[C@@H]4C[C@]5(C)CC[C@H]6[C@H](C)CC[C@@H]([C@H]3C)[C@@]46OO5)ccc12,0.66,13.5,0.25,2600,–
C[C@H]1[C@H](OC(=O)CCC(=O)Oc2cc(=O)oc3ccccc23)O[C@@H]2C[C@]3(C)CC[C@H]4[C@H](C)CC[C@@H]1[C@@]24OO3,321,72.8,119,2700,–
O=c1cc(C(F)(F)F)c2ccc(O)cc2o1,2.5,1.1,4.3,580,–
Cc1cc(=O)oc2cc(O)ccc12 [HYMECROMONE],7,0.58,4.37,1600,–
C[C@H]1[C@H](OC(=O)CCC(=O)Nc2ccc3c(C(F)(F)F)cc(=O)oc3c2)O[C@@H]2C[C@]3(C)CC[C@H]4[C@H](C)CC[C@@H]1[C@@]24OO3,0.21,1090,0.16,1300,Drug uptake [5]: Active
C[C@H]1[C@H](OC(=O)CCC(=O)Oc2ccc3ccc(=O)oc3c2)O[C@@H]2C[C@]3(C)CC[C@H]4[C@H](C)CC[C@@H]1[C@@]24OO3,216,2.2,4320,50,Activity (SK-MEL3 [6]): Active; Activity (SK-MEL3 [7]): Active; IC50 (SK-MEL3 [8]): 118 nM; Activity [9]: Non-Toxic; Activity (C3PV [10]): inactive; Activity (SK-MEL-28 [11]): inactive; Activity (SK-MEL-28 [12]): Active
C[C@H]1[C@H](OC(=O)CCC(=O)Oc2cc3ccc(=O)oc3cc2O)O[C@@H]2C[C@]3(C)CC[C@H]4[C@H](C)CC[C@@H]1[C@@]24OO3,–,97.9,361,1900,IC50 [1]: 686 µM
C[C@H]1[C@H](OC(=O)CCC(=O)Oc2ccc3oc(=O)ccc3c2)O[C@@H]2C[C@]3(C)CC[C@H]4[C@H](C)CC[C@@H]1[C@@]24OO3,132,576,8810,15,IC50 (SK-MEL3 [8]): 1 nM; Activity [13]: Non-Toxic; Activity (C3PV [14]): inactive; Activity (SK-MEL3 [15]): Active; Activity (SK-MEL-28 [16]): inactive; Activity (SK-MEL-28 [17]): inactive; Activity (SK-MEL3 [18]): Active
Nc1ccc2c(C(F)(F)F)cc(=O)oc2c1,27.4,0.98,29.4,930,Drug uptake [5]: Active
O=c1ccc2cc(O)ccc2o1 [6-HYDROXYCOUMARIN],2.95,0.45,1.6,1850,IC50 (SK-MEL3 [19]): 1140 nM
O=c1ccc2ccc(O)cc2o1 [UMBELLIFERONE],20.9,0.48,9.9,2100,IC50 (SK-MEL3 [19]): 1600 nM
COc1cc2ccc(=O)oc2cc1OC(=O)CCC(=O)O[C@@H]1O[C@@H]2C[C@]3(C)CC[C@H]4[C@H](C)CC[C@@H]([C@H]1C)[C@@]24OO3,3.05,132,0.74,4100,–
C[C@H]1[C@H](OC(=O)CCC(=O)Oc2ccc3c(C(F)(F)F)cc(=O)oc3c2)O[C@@H]2C[C@]3(C)CC[C@H]4[C@H](C)CC[C@@H]1[C@@]24OO3,–,6.84,294,3600,IC50 [1]: 1060 µM
O=c1cc(O)c2ccccc2o1 [4-HYDROXYCOUMARINS],0.6,1.3,0.29,2100,–
O=c1oc2ccccc2cc1O [3-HYDROXYCOUMARIN],12.5,1.2,1.8,6800,–
O=c1ccc2cc(O)c(O)cc2o1 [ESCULETIN],25.8,0.96,15.2,1700,–
